In this series the test system is artificial myocardial structure (cardiac organoid). The experiment in a line: contractile force-based cardiac toxicity assessment using the artificial myocardial structure. The series is classed as cell-based, human. The source says: Furthermore, after additionally treating an artificial myocardial structure prepared by coculturing gelatin oil capsules and cardiomyocytes with various drugs, contractile forces of the drug-treated artificial myocardial structure were checked.

On to `COc1ccc(CCN(C)CCCC(C#N)(c2ccc(OC)c(OC)c2)C(C)C)cc1OC` (stereo not drawn) [verapamil], for which the beat rates result (group treated with 125 nM) was “slow down and become somewhat irregular”.
For the molecule `CC(C)NCC(O)c1ccc(O)c(O)c1` (stereo not drawn) [Isopreterenol], under “group treated with 10 nM”, the beat rates entry is given as “accelerated” and the contractile forces entry is “changed strongly”.

The values are drawn from US12325867B2, “Organoid produced using carrier for cell culture, and method for evaluating drug toxicity using same” (Korea Research Institute of Chemical Technology, priority 2018, dated 2025).
